Assays:
NOX2 = molecular target: T1, NOX2 (Homo sapiens, UniProt P04839); assay: NOX2 HL60 cell-based assay (PMA oxidative burst, L012 chemiluminescence); conditions: DMSO-differentiated HL-60 cells, PMA-stimulated; for inhibition at 0.1 µM: HL-60, 100 nM; for inhibition at 1 µM: HL-60, 1000 nM
T1 construct: HL-60 cells, rich in NOX2 expression; endogenous in cells; host or cells: DMSO-differentiated HL-60
T1 sequence (P04839 2-570 limits assumed): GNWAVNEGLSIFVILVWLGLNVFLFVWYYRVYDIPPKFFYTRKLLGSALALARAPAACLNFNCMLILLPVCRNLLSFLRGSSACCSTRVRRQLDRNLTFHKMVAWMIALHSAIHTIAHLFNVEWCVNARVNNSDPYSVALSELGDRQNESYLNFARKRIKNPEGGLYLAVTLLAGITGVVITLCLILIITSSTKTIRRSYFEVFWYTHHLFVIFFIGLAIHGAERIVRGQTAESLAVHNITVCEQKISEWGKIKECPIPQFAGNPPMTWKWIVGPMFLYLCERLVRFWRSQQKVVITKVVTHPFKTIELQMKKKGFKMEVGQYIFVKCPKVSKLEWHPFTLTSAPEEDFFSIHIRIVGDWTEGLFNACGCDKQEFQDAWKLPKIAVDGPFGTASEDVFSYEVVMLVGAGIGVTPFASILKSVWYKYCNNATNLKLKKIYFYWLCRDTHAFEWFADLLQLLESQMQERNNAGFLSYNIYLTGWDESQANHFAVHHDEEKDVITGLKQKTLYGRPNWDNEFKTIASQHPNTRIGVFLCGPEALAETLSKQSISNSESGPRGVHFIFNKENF
T1 sequence (P13498 2-195 partner limits assumed): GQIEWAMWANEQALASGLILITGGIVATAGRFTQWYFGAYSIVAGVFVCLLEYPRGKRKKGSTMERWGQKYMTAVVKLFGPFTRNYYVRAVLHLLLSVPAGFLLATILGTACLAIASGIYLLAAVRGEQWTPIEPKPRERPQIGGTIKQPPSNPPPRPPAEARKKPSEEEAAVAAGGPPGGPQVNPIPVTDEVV
Experimental: NOX2 HL60 Cell-Based Assay:
HL-60 cells, rich in NOX2 expression, was stimulated to undergo oxidative burst by phorbol myristate acetate (PMA). The ROS produced during this process was measured using the O2^−-specific chemiluminescent probe L012. L012 was added to DMSO-differentiated HL-60 cell suspensions to a final concentration of 100 μM. Then, 80 μL aliquots of cell suspension (2.5×10^5 cells) were transferred to individual wells of a 96-well plate. Test compounds were directly added to the wells at the specified concentrations. Following a 30-60 mins incubation at 37° C. in the dark, the oxidative burst was initiated by the addition of 10 ng/mL PMA, and the chemiluminescence signal was recorded every 5 min over a period of 60 mins in a SpectraMax i3 Multiplate reader (Molecular Devices, Sunnyvale, Calif., USA). • NOX4 HEK293 Overexpression Cell-Based Assay: […]

NOX4 = molecular target: T2, NOX4 (Homo sapiens, UniProt Q9NPH5); assay: NOX4 HEK293 overexpression cell-based assay (Amplex Red H2O2); conditions: HEK293 cells stably overexpressing NOX4, DMSO = 0, GKT137831 = 100; for inhibition at 0.1 µM: HEK293, 100 nM; for inhibition at 1 µM: HEK293, 1000 nM
T2 construct: expressed in transfected cells
T2 sequence (Q9NPH5 1-578): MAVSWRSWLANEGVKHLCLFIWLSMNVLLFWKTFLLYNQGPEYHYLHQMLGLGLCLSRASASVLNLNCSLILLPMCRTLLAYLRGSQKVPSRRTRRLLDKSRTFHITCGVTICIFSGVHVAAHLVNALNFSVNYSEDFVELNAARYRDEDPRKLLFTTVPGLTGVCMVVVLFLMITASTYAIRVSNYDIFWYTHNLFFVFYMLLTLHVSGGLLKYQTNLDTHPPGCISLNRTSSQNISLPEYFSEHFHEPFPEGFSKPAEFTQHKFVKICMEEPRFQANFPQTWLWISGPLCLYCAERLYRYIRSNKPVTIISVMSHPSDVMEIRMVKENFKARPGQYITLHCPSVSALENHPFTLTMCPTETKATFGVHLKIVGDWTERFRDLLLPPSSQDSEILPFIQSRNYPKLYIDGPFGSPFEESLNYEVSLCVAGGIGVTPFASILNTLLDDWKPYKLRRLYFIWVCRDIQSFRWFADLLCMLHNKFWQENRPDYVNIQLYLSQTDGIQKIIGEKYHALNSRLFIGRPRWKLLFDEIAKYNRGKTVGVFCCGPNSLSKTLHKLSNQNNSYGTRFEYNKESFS
T2 sequence (P13498 2-195 partner limits assumed): T1 sequence (P13498 2-195 partner limits assumed)
Experimental: Extracellular H2O2 measurement using Amplex™ Red Hydrogen Peroxide/Peroxidase Assay Kit (Catalog number: A22188; Invitrogen, Carlsbad, Calif., USA) was used to detect extracellular H2O2 release by HEK293 cells stably overexpressing NOX4. NOX4 clonal cells in log-phase growth were trypsinized, washed, and dispersed thoroughly. Following trypsinization, the cells (3×10^4) were resuspended in 100 μL of 1× Krebs-Ringer phosphate glucose (KRPG) buffer containing various concentrations of GKT137831 or test compounds and incubated at 37° C. for 30 min. Cells were mixed with 100 μL of Amplex Red reagent solution containing 50 μM Amplex Red and 0.1 units/mL of HRP in KRPG buffer; each assay condition was evaluated induplicate. The samples were incubated at 37° C. for 90 mins in the dark, and then centrifuged at 2,500 g for 5 mins. The supernatants were loaded to a 96 well plate, and then measured using a SpectraMax i3 Multiplate reader (Molecular Devices, Sunnyvale, Calif., USA) at 530 nm excitation and 590 nm emission respectively. DMSO and GKT137831 wells were applied as negative and positive controls, and the activities measured were set to 0 and 100, respectively.

NOX1 = molecular target: T3, NOX1 (Homo sapiens, UniProt Q9Y5S8); assay: NOX1 HT29 cell-based assay (luminol/HRP luminescence); conditions: HT29 cells, DMSO = 0%, GKT137831 = 100%; for inhibition at 0.1 µM / inhibition at 1 µM: HT-29
T3 construct: endogenous in cells; host or cells: HT29
T3 sequence (Q9Y5S8 1-564): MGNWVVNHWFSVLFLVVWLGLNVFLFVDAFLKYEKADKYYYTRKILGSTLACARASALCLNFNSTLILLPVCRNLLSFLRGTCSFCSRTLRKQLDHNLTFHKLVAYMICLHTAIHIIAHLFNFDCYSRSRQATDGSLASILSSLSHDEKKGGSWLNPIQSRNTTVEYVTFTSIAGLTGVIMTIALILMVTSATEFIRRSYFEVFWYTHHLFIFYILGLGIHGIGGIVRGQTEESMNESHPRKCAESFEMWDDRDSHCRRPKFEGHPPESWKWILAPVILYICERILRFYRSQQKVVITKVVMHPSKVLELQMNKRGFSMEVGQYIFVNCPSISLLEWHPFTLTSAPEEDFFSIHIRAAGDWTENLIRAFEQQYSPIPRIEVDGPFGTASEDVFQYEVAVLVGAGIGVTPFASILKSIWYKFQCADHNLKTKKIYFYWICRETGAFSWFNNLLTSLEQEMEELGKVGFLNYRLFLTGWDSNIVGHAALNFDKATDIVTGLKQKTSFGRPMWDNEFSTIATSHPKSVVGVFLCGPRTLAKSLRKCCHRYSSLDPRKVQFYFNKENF
T3 sequence (P13498 2-195 partner limits assumed): T1 sequence (P13498 2-195 partner limits assumed)
Experimental: NOX1 HT29 Cell-Based Assay:
HT29 cells were cultured in T75 flask (Corning) and when 70-80% confluence was reached, cells were trypsinized, harvested in HBSS and counted. 1-2×10^5 cells were dispensed into individual wells in 70 μl final volume (96-well plates, white Corning). Cells were treated for 30-60 mins at 37° C. with 10 μl of GKT137831, DMSO and test compounds from their respective assay plates. This will correspond to a final concentration of 100 nM, 1000 nM GKT137831 or test compounds, and 0.1% DMSO. 20 μL of a mixture containing 100 μM luminol plus 0.4 units of HRP (final concentration) was added. Luminescence was quantified using a SpectraMax i3 Multiplate reader (Molecular Devices, Sunnyvale, Calif., USA). As designed, compounds that inhibit NOX1 activity will reduce cellular ROS production, leading to reduced probe-ROS interactions and reduced well luminescence. Compounds were tested in duplicate at a concentration of 100 nM and 1000 nM. DMSO and GKT137831 wells were applied as negative and positive controls, and the activities measured were set to 0% and 100%, respectively.

Compound: COc1cc2[nH]c(-c3ccccc3N)c(O)c(=O)c2cc1OC [Compound 30, 2-(2-aminophenyl)-3-hydroxy-6,7-dimethoxyquinolin-4(1H)-one]
- inhibition at 0.1 µM (NOX2): 50 to 79%
- inhibition at 1 µM (NOX2): ≥ 80%
- inhibition at 0.1 µM (NOX4): ≤ 19%
- inhibition at 1 µM (NOX4): ≤ 19%
- inhibition at 0.1 µM (NOX1; 100 nM): ≤ 19%
- inhibition at 1 µM (NOX1; 1000 nM): ≥ 80%

Compound: COc1cc2[nH]c(-c3ccccc3[N+](=O)[O-])c(O)c(=O)c2cc1OC [Compound 29, 3-hydroxy-6,7-dimethoxy-2-(2-nitrophenyl) quinolin-4(1H)-one 2,2,2-trifluoroacetate]
- % Inhibition NOX2 (NOX2; 100 nM): C (the percent of inhibition of NOX by the compounds ranges from 2000 to 49%)
- inhibition at 1 µM (NOX2): ≥ 80%
- inhibition at 0.1 µM (NOX4): 50 to 79%
- inhibition at 1 µM (NOX4): 50 to 79%
- inhibition at 0.1 µM (NOX1; 100 nM): ≥ 80%
- inhibition at 1 µM (NOX1; 1000 nM): ≥ 80%

Compound: COc1cc2[nH]c(-c3ccccc3OC)c(O)c(=O)c2cc1OC [Compound 5]
- % Inhibition NOX2 (NOX2; 1000 nM): A (the percent of inhibition of NOX by the compounds is larger than or equals to 80%)
- inhibition at 0.1 µM (NOX2): ≤ 19%
- % Inhibition NOX4 (NOX4; 100 nM): C (the percent of inhibition of NOX by the compounds ranges from 2000 to 49%)
- % Inhibition NOX4 (NOX4; 1000 nM): A (the percent of inhibition of NOX by the compounds is larger than or equals to 80%)
- % Inhibition NOX1 (NOX1; 100 nM): A (the percent of inhibition of NOX by the compounds is larger than or equals to 80%)
- % Inhibition NOX1 (NOX1; 1000 nM): A (the percent of inhibition of NOX by the compounds is larger than or equals to 80%)

Compound: COc1ccc(-c2c(O)c(=O)c3ccccc3n2C)cc1 [Compound 39]
- inhibition at 0.1 µM (NOX2): ≤ 19%
- inhibition at 1 µM (NOX2): ≤ 19%
- inhibition at 0.1 µM (NOX4): ≤ 19%
- inhibition at 1 µM (NOX4): 50 to 79%
- inhibition at 0.1 µM (NOX1; 100 nM): ≤ 19%
- inhibition at 1 µM (NOX1; 1000 nM): ≥ 80%

Compound: COc1cc2[nH]c(-c3ccc(Cl)cc3Cl)c(O)c(=O)c2cc1OC [Compound 49]
- % Inhibition NOX2 (NOX2; 1000 nM): A (the percent of inhibition of NOX by the compounds is larger than or equals to 80%)
- inhibition at 0.1 µM (NOX2): ≤ 19%
- % Inhibition NOX4 (NOX4; 100 nM): C (the percent of inhibition of NOX by the compounds ranges from 2000 to 49%)
- % Inhibition NOX4 (NOX4; 1000 nM): B (the percent of inhibition of NOX by the compounds ranges from 50% o to 79% o)
- % Inhibition NOX1 (NOX1; 100 nM): A (the percent of inhibition of NOX by the compounds is larger than or equals to 80%)
- % Inhibition NOX1 (NOX1; 1000 nM): A (the percent of inhibition of NOX by the compounds is larger than or equals to 80%)

Compound: COc1ccc(-c2[nH]c3ccsc3c(=O)c2O)cc1 [Compound 10]
- % Inhibition NOX2 (NOX2; 1000 nM): C (the percent of inhibition of NOX by the compounds ranges from 2000 to 49%)
- inhibition at 0.1 µM (NOX2): ≤ 19%
- % Inhibition NOX4 (NOX4; 100 nM): C (the percent of inhibition of NOX by the compounds ranges from 2000 to 49%)
- inhibition at 1 µM (NOX4): ≥ 80%
- inhibition at 0.1 µM (NOX1; 100 nM): ≥ 80%
- inhibition at 1 µM (NOX1; 1000 nM): ≥ 80%

Compound: COc1ccccc1-c1[nH]c2c(OC)c(OC)c(OC)cc2c(=O)c1O [Compound 19]
- inhibition at 0.1 µM (NOX2): ≤ 19%
- inhibition at 1 µM (NOX2): 50 to 79%
- inhibition at 0.1 µM (NOX4): ≤ 19%
- inhibition at 1 µM (NOX4): 50 to 79%
- inhibition at 0.1 µM (NOX1; 100 nM): ≥ 80%
- inhibition at 1 µM (NOX1; 1000 nM): ≥ 80%

Compound: CCCOc1ccccc1-c1[nH]c2cc(OC)c(OC)cc2c(=O)c1O [Compound 22]
- % Inhibition NOX2 (NOX2; 100 nM): C (the percent of inhibition of NOX by the compounds ranges from 2000 to 49%)
- inhibition at 1 µM (NOX2): ≥ 80%
- % Inhibition NOX4 (NOX4; 100 nM): C (the percent of inhibition of NOX by the compounds ranges from 2000 to 49%)
- inhibition at 1 µM (NOX4): ≥ 80%
- inhibition at 0.1 µM (NOX1; 100 nM): ≥ 80%
- inhibition at 1 µM (NOX1; 1000 nM): ≥ 80%

Compound: COc1cc2c(cc1OC)C(=O)NCC(c1ccccc1Cl)=N2 [Compound 35, 2-(2-chlorophenyl)-7,8-dimethoxy-3,4-dihydro-5H-benzo[e][1,4] diazepin-5-one]
- inhibition at 0.1 µM (NOX2): ≤ 19%
- inhibition at 1 µM (NOX2): ≤ 19%
- inhibition at 0.1 µM (NOX4): ≤ 19%
- inhibition at 1 µM (NOX4): ≤ 19%
- inhibition at 0.1 µM (NOX1; 100 nM): ≤ 19%
- inhibition at 1 µM (NOX1; 1000 nM): ≤ 19%
